From US5179113A, “Treatment of central nervous disorders with imidazole compounds” (E. I. Du Pont de Nemours and Company, priority 1991, dated 1993)
Entries after “also recorded” stand apart in the source; their conditions may differ. Where a name gives a salt, the structure may show the parent alone. Values belong to the molecule of their own block, whether it stands above or below them.

Legend:
[1] = tested on: AII-2 receptors in the brain; test: Binding of AII antagonists to brain slices, AII-2 sites; settings: majority of binding sites
[2] = tested on: AII-1 receptors in the brain; test: Binding of AII antagonists to brain slices, AII-1 sites; settings: clusters of AII-1 sites
[3] = tested on: AII receptor subtype-1 (AII-1); settings: rat adrenal cortex; cited from earlier work
[4] = tested on: AII receptor subtype-2 (AII-2); settings: rat adrenal cortex; cited from earlier work
[5] = tested on: male Sprague-Dawley rats (renin-induced amnesia); test: Renin-disrupted passive avoidance retention; format: in vivo, rat; settings: for effect on renin-induced amnesia (in words): co-administered with renin IVT
Experimental: Experimentally naive male Sprague-Dawley rats […] (Charles River Breeding Laboratories, Kingston, N.Y.), weighing between 175 to 200 gm were used. The animals were housed four per cage (45.0(L)×20.0(H)×26.0(W) cm) with free access to food and water. They were maintained on a 12 h light/dark cycle (lights on 600 h) and at a room temperature of 22°±1° C. with relative humidity of 50±10%. The experimental sessions were conducted in a two-compartment passive avoidance box. One compartment, made of clear plastic with a perforated clear plastic floor, measured 21(L)×24.5(H)×17(W) cm and was illuminated with a 60 watt incandescent light bulb placed 36 cm above the floor. The other compartment, made of black plastic, measured 30.5(L)×20.3(H)×21.5(W) cm with a floor made of 4 mm stainless steel rods spaced 1.2 cm apart. A grid floor shocker (Coulbourn Instruments) was connected to the steel rods and provided scrambled footshock. The two compartments were separated by a solenoid-operated slide door (Lafayette Instrument Co., Lafayette, Ind.). An electronic counter (Coulbourn Instruments), triggered by the opening or closing of the slide door, recorded acquisition and retention latencies (latencies were defined as the time it took an animal to enter the dark compartment). Passive avoidance training began by placing the rat into the clear compartment of the two-compartment passive avoidance box. Following a 10 sec delay, the slide door to the dark compartment was raised. Once the rat moved completely into the dark compartment (all four paws on the shock grid floor) the slide door was lowered, and after a 10 sec delay, a 1.0 mA shock was applied to the grid floor for three sec. A second three sec shock was delivered after an additional 10 sec delay. The rats were immediately removed from the dark compartment and returned to their home cage. A retention test was given 24 h later. It proceeded in the same manner as the training session except that no shock was applied to the grid floor when the rats were provided access to the dark compartment for a maximum of 300 sec. […] All drugs were administered IVT 60 minutes prior to acquisition training in a volume of 5 μl. Doses are expressed as the free base weight of each compound.

AII-1 receptor = test: AII receptor antagonism, subtype AII-1, as stated; settings: stated in words, no data
[6] = tested on: eight arm radial maze performance in rats; settings: 3 mg/kg IP; Usinger et al. 1988; cited from earlier work
[7] = tested on: memory of previously learned tasks; settings: EP 288,907; cited from earlier work
[8] = tested on: retention of a passive avoidance (PA) response in rats; settings: injected into dorsal neostriatum; Morgan and Routtenberg 1977; cited from earlier work
[9] = tested on: release of ACh in entorhinal cortex from rat brain; settings: in vitro; Barnes et al. 1989; cited from earlier work
[10] = tested on: AII in cerebrospinal fluid (CSF); settings: renin into lateral ventricle; AII increased from 40; Koller et al. 1975; cited from earlier work

sensitivity of AII-2 binding sites in brain [1]: DTT-insensitive
sensitivity of AII-1 binding sites in brain [2]: DTT-sensitive
Molecule: O[C@H](CS)[C@H](O)CS (racemic) [DTT, dithiothreitol]
sensitivity of AII-1 receptor to inactivation by DTT [3]: particularly sensitive to inactivation
sensitivity of AII-2 receptor to inactivation by DTT [4]: resistant to DTT inactivation

AII-1 receptor antagonism (AII-1 receptor): AII-1 receptor antagonists
Molecule: CCCc1nc(C(F)(F)F)c(C(=O)O)n1Cc1ccc(-c2ccccc2-c2nn[nH]n2)cc1 [Compound C, sodium salt of 2-n-propyl-1-[(2'-(1H-tetrazol-5-yl)biphenyl-4-yl)methyl]-4-trifluoromethylimidazole-5-carboxylic acid]
effect on renin-induced amnesia (in words) [5]: protected against the amnesia

AII-1 receptor antagonism (AII-1 receptor): AII-1 receptor antagonists
Molecule: CCCc1nc(C(F)(F)F)c(CO)n1Cc1ccc(-c2ccccc2-c2nn[nH]n2)cc1 [Compound D, sodium salt of 2-n-propyl-5-hydroxymethyl-1-[(2'-(1H-tetrazol-5-yl)biphenyl-4-yl)methyl]-4-trifluoromethylimidazole]
effect on renin-induced amnesia (in words) [5]: protected against the amnesia

sensitivity of AII-2 binding sites in brain [1]: EXP655-sensitive
Molecule: Cc1cc(Cn2cnc3c2CC(C(=O)O)N(C(=O)C(c2ccccc2)c2ccccc2)C3)ccc1N (stereo not drawn) [EXP655, 1-(4-amino-3-methylphenyl)methyl-5-diphenylacetyl-4,5,6,7-tetrahydro-1H-imidazo[4,5-c]pyridine-6-carboxylic acid]
effect on renin-induced amnesia (in words) [5]: much less effective in preventing the amnesia

Molecule: CCOC(=O)C(CCc1ccccc1)NC(C)C(=O)N1CC2(CC3CCC2CC3)CC1C(=O)O (stereo not drawn) [Hoe 288]
effect on muscarinic receptor blockade on performance [6]: partially antagonized the effects of muscarinic receptor blockade on performance

Molecule: NCCCC[C@H](OP(=O)(O)CCCCc1ccccc1)C(=O)N1CCC[C@H]1C(=O)O [SQ 29852]
effect on an anticholinergic effect on performance [7]: ameliorate, at least in part

Molecule: C[C@H](CS)C(=O)N1CCC[C@H]1C(=O)O [captopril]
effect on renin-induced amnesia (in words) [5]: prevented

Molecule: NC(=O)[C@@H]1CCCN1C(=O)[C@H](Cc1cnc[nH]1)NC(=O)[C@@H]1CCC(=O)N1 [thyrotropin releasing hormone]
effect on retention of PA response [8]: no effect

Molecule: AI: AI, compared with AII in ACh release (DRVYIHPFHL; Angiotensin-1; UniProt P01019 25-34, looked up)
effect on potassium-stimulated release of ACh [9]: not AI

Molecule: AII: Angiotensin-II, circulating hormone thought to act as a neuropeptide in the CNS (DRVYIHPF; Angiotensin-2; UniProt P01019 25-32, looked up)
effect on basal ACh levels [9]: without effects on basal levels
effect on retention of PA response [8]: disruption in retention of a PA response

Molecule: [1-sarcosine, 8-threonine]angiotensin-II
effect on AII-induced reduction of ACh release [9]: antagonized

Molecule: lysine-8-vasopressin
effect on retention of PA response [8]: no effect

B1: renin: Renin (Sigma Chemicals), a stimulator of endogenous AII biosynthesis (protein, UniProt P00797 67-406, looked up)
Renin: LTLGNTTSSVILTNYMDTQYYGEIGIGTPPQTFKVVFDTGSSNVWVPSSKCSRLYTACVYHKLFDASDSSSYKHNGTELTLRYSTGTVSGFLSQDIITVGGITVTQMFGEVTEMPALPFMLAEFDGVVGMGFIEQAIGRVTPIFDNIISQGVLKEDVFSFYYNRDSENSQSLGGQIVLGGSDPQHYEGNFHYINLIKTGVWQIQMKGVSVGSSTLLCEDGCLALVDTGASYISGSTSSIEKLMEALGAKKRLFDYVVKCNEGPTLPDISFHLGGKEYTLTSADYVFQESYSSKKLCTLAIHAMDIPPPTGPTWALGATFIRKFYTEFDRRNNRIGFALAR
memory deficit / amnesia produced by renin (in words) ([5]; IVT, passive avoidance): produces a reliable memory deficit in rats; also recorded: dose-related amnesia in a PA task
AII in CSF after renin [10]: about 5000 fmol per mL
